The values that follow come from patent US10105357B2, “Indication of antibiotic drugs for preparation of cancer inhibition pharmaceutical composition” (LAUNX BIOMEDICAL CO., LTD., priority 2014, dated 2018).

Data set [1] relates to HI650 (Lung Adenocarcinoma). Description: Cell viability analysis, lung cancer HI650. Type of data set: cell-based, human.
Data set [2] relates to A549 (Lung Adenocarcinoma). Description: Cell viability analysis, lung cancer A549. The class given is cell-based, human.
The test system of data set [3] is AGS (Gastric Adenocarcinoma). The experiment in a line: Cell viability analysis, gastric cancer AGS. Type of data set: cell-based, human.
For data set [4], the system named is MKN-45 (Gastric Adenocarcinoma). The experiment in a line: Cell viability analysis, gastric cancer MKN-45. The class given is cell-based, human.
The test system of data set [5] is HepG2 (Hepatocellular Carcinoma). Description: Cell viability analysis, hepatic cancer HepG2. The class given is cell-based, human.
Data set [6] deals with Hep3B (hepatocellular carcinoma). The experiment in a line: Cell viability analysis, hepatic cancer Hep3B. The class given is cell-based, human.
Data set [7] has as its system LoVo (Colorectal Adenocarcinoma). The experiment in a line: Cell viability analysis, colon cancer LoVo. Type of data set: cell-based, human.
In data set [8] the test system is A375 (Amelanotic Melanoma). The experiment in a line: Cell viability analysis, skin cancer A375. The class given is cell-based, human.
Data set [9] concerns BCC (basal cell carcinoma). Description: Cell viability analysis, skin cancer BCC. Type of data set: cell-based, human.
The test system of data set [10] is HeLa (Cervix Adenocarcinoma). Description: Cell viability analysis, cervical cancer HeLa. The class given is cell-based, human.
Data set [11] has as its system C-33A (Cervical carcinoma). Description: Cell viability analysis, cervical cancer C-33A. The class given is cell-based, human.
In data set [12] the test system is PC3 (p53−) (Prostate Adenocarcinoma). The experiment in a line: Cell viability analysis, prostate cancer PC3. The class given is cell-based, human.
Data set [13] deals with TSGH-8301 (Urinary Bladder Carcinoma). Description: Cell viability analysis, bladder cancer TSGH-8301. Type of data set: cell-based, human.
In another data set the test system is T24. Description: Cell viability analysis, bladder cancer T24. Type of data set: cell-based, human.
In data set [14] the test system is MCF7 (Mammary Gland, Adenocarcinoma). The experiment in a line: Cell viability analysis, breast cancer MCF7. Type of data set: cell-based, human.
In data set [15] the test system is MDA-MB-231 (Mammary Gland, Adenocarcinoma). Description: Cell viability analysis, breast cancer MDA-MB-231. Type of data set: cell-based, human.
The test system of a further data set is BxPC-3. The experiment in a line: Cell viability analysis, pancreatic cancer BxPC-3. Type of data set: cell-based, human.
The next data set deals with AsPC-1. Description: Cell viability analysis, pancreatic cancer AsPC-1. Type of data set: cell-based, human.
The subject of a further data set is NIH: OVCAR-3. Description: Cell viability analysis, ovarian cancer NIH: OVCAR-3. Type of data set: cell-based, human.
The test system of the next data set is TOV-21G. The experiment in a line: Cell viability analysis, ovarian cancer TOV-21G. Type of data set: cell-based, human.
Data set [16] relates to SAS (Tongue squamous cell carcinoma). The experiment in a line: Cell viability analysis, tongue cancer SAS. Type of data set: cell-based, human.
For a further data set, the system named is U-2OS. Description: Cell viability analysis, osteosarcoma U-2OS. The class given is cell-based, human.
Data set [17] concerns 786-O (Renal adenocarcinoma). The experiment in a line: Cell viability analysis, renal cancer 786-O. Type of data set: cell-based, human.
Data set [18] concerns HCT116 (p53+) (Colorectal Carcinoma).

In general, viability refers to a read-out of living cells in per cent, often relative to untreated cells. For `CC(=O)Oc1ccccc1C(=O)Nc1ncc([N+](=O)[O-])s1` [Nitazoxanide (Alinia, Annita)], the “The results of antibiotic drug inhibiting cancer cell lines (cell viability analysis), H1650” value in [1] worked out at 85.86. Further, in [2], the “The results of antibiotic drug inhibiting cancer cell lines (cell viability analysis), A549” value worked out at 95.57. Also, the “The results of antibiotic drug inhibiting cancer cell lines (cell viability analysis), AGS” value in [3] amounted to 99.04. Also, in [4], the “The results of antibiotic drug inhibiting cancer cell lines (cell viability analysis), MKN-45” value was determined as 97.28. For the same compound, in data set [5], the “The results of antibiotic drug inhibiting cancer cell lines (cell viability analysis), HepG2” value is given as 107.5. The “The results of antibiotic drug inhibiting cancer cell lines (cell viability analysis), Hep3B” value in data set [6] is on record as 106.8. Besides, the “The results of antibiotic drug inhibiting cancer cell lines (cell viability analysis), LoVo” value in [7] is reported as 94.76. Further, the “The results of antibiotic drug inhibiting cancer cell lines (cell viability analysis), A375” value in [8] is 94.2. For the same compound, the “The results of antibiotic drug inhibiting cancer cell lines (cell viability analysis), BCC” value in data set [9] came to 76. For the same compound, in data set [10], the “The results of antibiotic drug inhibiting cancer cell lines (cell viability analysis), HeLa” value amounted to 84.93. For the same compound, the “The results of antibiotic drug inhibiting cancer cell lines (cell viability analysis), C-33A” value in data set [11] came to 103.9. Also, in data set [12], the “The results of antibiotic drug inhibiting cancer cell lines (cell viability analysis), PC-3” value is given as 90.27. Besides, the “The results of antibiotic drug inhibiting cancer cell lines (cell viability analysis), TSGH-8301” value in data set [13] is on record as 87.18. Also, the “The results of antibiotic drug inhibiting cancer cell lines (cell viability analysis), T24” value with T24 is 76.47. Besides, the “The results of antibiotic drug inhibiting cancer cell lines (cell viability analysis), MCF-7” value in data set [14] was 79.28. Also, in data set [15], the “The results of antibiotic drug inhibiting cancer cell lines (cell viability analysis), MDA-MB231” value is 91.23. Besides, the “The results of antibiotic drug inhibiting cancer cell lines (cell viability analysis), BxPC-3” value in the data set on BxPC-3 worked out at 89.5. Also, the “The results of antibiotic drug inhibiting cancer cell lines (cell viability analysis), AsPC-1” value with AsPC-1 was 84.09. In the data set with NIH: OVCAR-3, the “The results of antibiotic drug inhibiting cancer cell lines (cell viability analysis), NIH-OVCAR-3” value was found to be 104.5. Besides, the “The results of antibiotic drug inhibiting cancer cell lines (cell viability analysis), TOV-21G” value in the data set on TOV-21G is 62.56. Further, the “The results of antibiotic drug inhibiting cancer cell lines (cell viability analysis), SAS” value in data set [16] came out at 78.89. Further, the “The results of antibiotic drug inhibiting cancer cell lines (cell viability analysis), U2OS” value with U-2OS stood at 83.33. In addition, in data set [17], the “The results of antibiotic drug inhibiting cancer cell lines (cell viability analysis), 786-O” value is 44.2. The viability in data set [18] turned out to be 98.4%.

As to `COC(=O)Nc1nc2ccc([S+]([O-])c3ccccc3)cc2[nH]1` (stereo not drawn) [Oxfendazole], the viability at 10 µM in data set [1] (Homo sapiens, NCI-H1650, 72 h, H1650, repeated experiment, read-out: The results of antibiotic drug inhibiting cancer cell lines (cell viability analysis), H1650) came out at 64%; in data set [2] (Homo sapiens, A549, 72 h, A549, repeated experiment, read-out: The results of antibiotic drug inhibiting cancer cell lines (cell viability analysis), A549), 64.7%; in data set [3] (Homo sapiens, 72 h, AGS, repeated experiment, read-out: The results of antibiotic drug inhibiting cancer cell lines (cell viability analysis), AGS), 51.4%; in data set [4] (Homo sapiens, MKN-45, 72 h, MKN-45, repeated experiment, read-out: The results of antibiotic drug inhibiting cancer cell lines (cell viability analysis), MKN-45) it was 79.9%; in [5] (Homo sapiens, HepG2, 72 h, HepG2, repeated experiment, read-out: The results of antibiotic drug inhibiting cancer cell lines (cell viability analysis), HepG2), 99.4%; in data set [6] (Homo sapiens, 72 h, Hep3B, repeated experiment, read-out: The results of antibiotic drug inhibiting cancer cell lines (cell viability analysis), Hep3B), 107%. Further, the viability at 10 µM in [7] (Homo sapiens, LoVo, 72 h, read-out: The results of antibiotic drug inhibiting cancer cell lines (cell viability analysis), LoVo, repeated experiment) was 73.7%; in [8] (Homo sapiens, A-375, 72 h, A375, repeated experiment, read-out: The results of antibiotic drug inhibiting cancer cell lines (cell viability analysis), A375) it was 59.7%; in data set [9] (Homo sapiens, 72 h, BCC, repeated experiment, read-out: The results of antibiotic drug inhibiting cancer cell lines (cell viability analysis), BCC), 55.3%; in [10] (Homo sapiens, HeLa, 72 h, HeLa, repeated experiment, read-out: The results of antibiotic drug inhibiting cancer cell lines (cell viability analysis), HeLa) it was 37%; in data set [11] (Homo sapiens, 72 h, C-33A, repeated experiment, read-out: The results of antibiotic drug inhibiting cancer cell lines (cell viability analysis), C-33A) it was 86.4%; in data set [12] (Homo sapiens, 72 h, PC-3, repeated experiment, read-out: The results of antibiotic drug inhibiting cancer cell lines (cell viability analysis), PC-3), 72.7%. In addition, the viability at 10 µM in [13] (Homo sapiens, 72 h, TSGH-8301, repeated experiment, read-out: The results of antibiotic drug inhibiting cancer cell lines (cell viability analysis), TSGH-8301) was found to be 67.6%; in the data set on T24 (Homo sapiens, T-24, 72 h, T24, repeated experiment, read-out: The results of antibiotic drug inhibiting cancer cell lines (cell viability analysis), T24), 70.2%; in [14] (Homo sapiens, MCF7, 72 h, MCF-7, repeated experiment, read-out: The results of antibiotic drug inhibiting cancer cell lines (cell viability analysis), MCF-7), 64.6%; in data set [15] (Homo sapiens, MDA-MB-231, 72 h, MDA-MB231, repeated experiment, read-out: The results of antibiotic drug inhibiting cancer cell lines (cell viability analysis), MDA-MB231) it was 73.9%; with BxPC-3 (Homo sapiens, 72 h, BxPC-3, repeated experiment, read-out: The results of antibiotic drug inhibiting cancer cell lines (cell viability analysis), BxPC-3) it was 55%; with AsPC-1 (Homo sapiens, ASPC1, 72 h, AsPC-1, repeated experiment, read-out: The results of antibiotic drug inhibiting cancer cell lines (cell viability analysis), AsPC-1), 50.9%. The viability at 10 µM in the data set with NIH: OVCAR-3 (Homo sapiens, 72 h, NIH-OVCAR-3, repeated experiment, read-out: The results of antibiotic drug inhibiting cancer cell lines (cell viability analysis), NIH-OVCAR-3) is 62.2%; in the data set on TOV-21G (Homo sapiens, TOV21G, 72 h, TOV-21G, repeated experiment, read-out: The results of antibiotic drug inhibiting cancer cell lines (cell viability analysis), TOV-21G), 65.1%; in data set [16] (Homo sapiens, 72 h, SAS, repeated experiment, read-out: The results of antibiotic drug inhibiting cancer cell lines (cell viability analysis), SAS) it was 72.3%; in the data set on U-2OS (Homo sapiens, 72 h, U2OS, repeated experiment, read-out: The results of antibiotic drug inhibiting cancer cell lines (cell viability analysis), U2OS), 83.4%; in data set [17] (Homo sapiens, 786-0, 72 h, 786-O, repeated experiment, read-out: The results of antibiotic drug inhibiting cancer cell lines (cell viability analysis), 786-O) it was 72.3%. Also, in [18], the viability was found to be 67.4%.
